For 9 compounds, EC50 results are on record in patent US8273744B2, “AMPK modulators” (priority 2008, dated 2012).

This assay has as its system AMPK. As to the kind of experiment: In vitro assay of AMPK activity (AlphaScreen, phosphorylation of human ACC1 fragment aa 1-120). The note with it: AMPK partially purified from HEK cells, 100 uM ATP, room temperature, 60 minutes, read-out: ED50 (the source's name). Format: biochemical. How it is done: AMPK activity was measured by the phosphorylation of the amino-teminal fragment of human acetyl CoA carboxylase-type 1, amino acids 1-120. The fragment was expressed as a biotinylated fusion protein in E. coli. The enzyme assay was conducted in a 5 ul reaction mixture containing 60 mM HEPES, pH7.0, 50 mM NaCL, 1 mM DTT, 5 mM MgCL2, 0.05% Tween-20, 100 uM ATP and with 25 uM AMP as a positive control. The reaction was carried out at room temperature for 60 minutes and stopped by addition of 5 ul of stop solution consisting of 20 mM EDTA, 0.1% BSA, 1% Triton-X-100, 0.01% Tween-20, 100 mM Tris pH8.0, 1:5,000 dilution of internally producted anti-pS79 (acetyl CoA carboxylase-1) purified rabbit polyclonal antibody, 40 ug/ml of AlphaScreen (Perkin Elmer) Acceptor beads and 40 ug/ml of AlphaScreen (Perkin Elmer) donor beads. The reaction mixture was further incubated at RT for 2 hours and analyzed on Fusion-Alpha microplate analyzer.
The AMPK assay was performed in a 25 ul reaction volume with the same reaction buffer as AMPK alpha assay at 30 C for 30 minutes. The reaction was stopped with SDS-PAGE sample buffer. The phosphorylated-GST-ACC was subjected to western blot analysis with anti-phospho-serine 79-ACC1 antibody (Cell Signaling Technologies). AMPK used in the assays described above was partially purified (Blazquez, C. et. al.).
The AMP-activated protein kinase is involved in the regulation of ketone body production by astrocytes. J. Neurochem. 73: 1674 (1999)) from HEKs (a human embryonic kidney cell line) and unless otherwise specified, chemicals used in the above assay were supplied by Sigma.

In the case of `Oc1ccccc1-c1ccc(-c2ccc3[nH]ccc3c2)cc1` [Compound 1, 5-(2-Hydroxybiphenyl)-1H-indole], the EC50 lay within 10 to 50 µM.

Turning to `N#Cc1c(O)nc2ccc(-c3ccc(-c4ccccc4O)cc3)cc2c1O` [Compound 2, 6-(2-Hydroxybiphenyl)-2,4-dihydroxyquinoline-3-carbonitrile], the EC50 was no more than 10 µM.

As for `N#Cc1c(O)nc2cccc(-c3ccc(-c4ccccc4O)cc3)c2c1O` [Compound 3, 5-(2-Hydroxybiphenyl)-2,4-dihydroxyquinoline-3-carbonitrile], the EC50 is no more than 10 µM.

Consider `O=Cc1c[nH]c2ccc(-c3ccc(-c4ccccc4O)cc3)cc12` [Compound 4, 5-(2-Hydroxybiphenyl)-1H-indole-3-carbaldehyde], for which the EC50 lay within 10 to 50 µM.

Turning to `N#Cc1c[nH]c2ccc(-c3ccc(-c4ccccc4O)cc3)cc12` [Compound 5, 5-(2-Hydroxybiphenyl)-1H-indole-3-carbonitrile], the EC50 was no more than 10 µM.

In the case of `O/N=C/c1c[nH]c2ccc(-c3ccc(-c4ccccc4O)cc3)cc12` [Compound 6, 5-(2-Hydroxybiphenyl)-1H-indole-3-carbaldehyde oxime], the EC50 was no less than 50 µM.

For the compound `N#Cc1c(O)nc2nc(-c3ccc(-c4ccccc4O)cc3)[nH]c2c1O` [Compound 7, 3-(2-Hydroxybiphenyl)-4,6-dihydroxyimidazo[5,4-b]pyridine-5-carbonitrile], the EC50 was no more than 10 µM.

Turning to `N#Cc1c(O)nc2ncc(-c3ccc(-c4ccccc4O)cc3)cc2c1O` [Compound 8, 6-(2-Hydroxybiphenyl)-2,4-dihydroxy-1,8-naphthyridine-3-carbonitrile], the EC50 was no more than 10 µM.

In the case of `N#Cc1c(O)cc2onc(-c3ccc(-c4ccccc4O)cc3)c2c1O` [Compound 9, 3-(2-Hydroxybiphenyl)-4,6-dihydroxyisoxazolo[5,4-b]pyridine-5-carbonitrile], the EC50 is 10 to 50 µM.
